Laboratory results: patent US10300074B2, “Use of inhibitor of apoptosis protein (IAP) antagonists in HIV therapy” (Sanford-Burnham Medical Research Institute, priority 2014, dated 2019)

Tests used:
[1] = system: Latently infected Jurkat JLat 10.6 cells; conditions: HDAC inhibitor in combination with Compound 35, 36 hours, normalized against background of HDAC inhibitor alone
[2] = target: XIAP BIR1/2 (Homo sapiens (Human), UniProt P98170); test: XIAP BIR1/2 Ki; assay type: binding; conditions: Table B-1
XIAP BIR1/2, sequence (P98170 1-240): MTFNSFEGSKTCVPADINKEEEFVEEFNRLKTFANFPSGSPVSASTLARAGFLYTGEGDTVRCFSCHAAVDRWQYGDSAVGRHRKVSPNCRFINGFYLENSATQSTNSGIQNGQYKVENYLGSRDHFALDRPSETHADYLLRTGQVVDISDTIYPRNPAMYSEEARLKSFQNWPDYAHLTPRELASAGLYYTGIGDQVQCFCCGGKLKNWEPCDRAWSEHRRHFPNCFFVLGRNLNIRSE

[3] = target: XIAP BIR3 (Homo sapiens (Human), UniProt P98170); test: XIAP BIR3 Ki; assay type: binding
XIAP BIR3, sequence (P98170 241-356): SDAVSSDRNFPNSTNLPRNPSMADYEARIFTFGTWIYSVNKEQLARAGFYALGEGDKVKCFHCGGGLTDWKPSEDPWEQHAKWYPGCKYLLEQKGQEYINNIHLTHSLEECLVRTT

[4] = target: ML-IAP (Homo sapiens (Human), UniProt Q96CA5); test: ML-IAP Ki; assay type: binding
ML-IAP, sequence (Q96CA5 whole entry): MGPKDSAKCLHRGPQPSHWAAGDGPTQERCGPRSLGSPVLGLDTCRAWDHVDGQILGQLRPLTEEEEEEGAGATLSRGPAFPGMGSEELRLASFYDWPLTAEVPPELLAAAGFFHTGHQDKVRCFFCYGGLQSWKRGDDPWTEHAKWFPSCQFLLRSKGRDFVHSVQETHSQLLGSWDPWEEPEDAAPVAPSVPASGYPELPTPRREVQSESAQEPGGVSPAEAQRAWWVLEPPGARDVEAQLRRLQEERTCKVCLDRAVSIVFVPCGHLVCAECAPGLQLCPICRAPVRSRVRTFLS

| Molecule | Group: increase of GFP+ cells [1] | Ki [2] [µM] | Ki ([3]; Table B-1) [µM] | further results |
| --- | --- | --- | --- | --- |
| CC(C)C(=O)SCCCCCCC(=O)Nc1nc(-c2ccccc2)cs1 [NCH-51, Propanethioic acid, 2-methyl-, S-[7-oxo-7-[(4-phenyl-2-thiazolyl)amino]heptyl] ester] | A (A 0-25%) | – | – | – |
| CN[C@@H](C)C(=O)N[C@H]1CO[C@H]2CCC(C(=O)NCc3ccccc3)N2C1=O (some centres unmarked) [Compound 5] | – | > 50 | 25 to 50 | – |
| CN[C@@H](C)C(=O)N[C@H]1CCO[C@H]2CCC(C(=O)Nc3cccc4ccccc34)N2C1=O (some centres unmarked) [Compound 13] | – | ≤ 25 | ≤ 25 | – |
| CN[C@@H](C)C(=O)N[C@H]1Cc2c([nH]c3ccccc23)[C@H]2CCC(C(=O)N[C@@H]3CCCc4ccccc43)N2C1=O (some centres unmarked) [Compound 31] | – | ≤ 25 | ≤ 25 | – |
| O=C(CCCCCN1C(=O)c2cccc3cccc(c23)C1=O)NO [Scriptaid] | C (C 50-75%) | – | – | – |
| CN[C@@H](C)C(=O)N[C@H]1CCS[C@H]2CC(C)(C)C(C(=O)N[C@@H]3CCCc4ccccc43)N2C1=O (some centres unmarked) [Compound 17c] | – | – | – | Ki ([4]; Table 2-2): ≤ 25 µM; Ki ([3]; Table 2-2): ≤ 25 µM |
| CN[C@@H](C)C(=O)N[C@H]1Cc2c([nH]c3ccccc23)[C@H]2CCC(C(=O)N[C@@H]3CCCc4ccccc43)N2C1=O (some centres unmarked) [Compound 30] | – | > 50 | 25 to 50 | – |
| CN[C@@H](C)C(=O)N[C@H]1CO[C@H]2CCC(C(=O)Nc3ccc(Cl)cc3)N2C1=O (some centres unmarked) [Compound 8] | – | > 50 | 25 to 50 | – |
| CN[C@@H](C)C(=O)N[C@H]1CC(=O)N[C@H]2CC(C)(C)C(C(=O)N[C@@H]3CCCc4ccccc43)N2C1=O (some centres unmarked) [Compound 46] | – | > 50 | ≤ 25 | Ki ([4]; Table B-1): ≤ 25 µM |
| CN[C@@H](C)C(=O)N[C@H]1CCO[C@H]2CC[C@@H](C(=O)Nc3cccc4ccccc34)N2C1=O [Compound 25] | – | ≤ 25 | ≤ 25 | – |
| CCC(=O)CCCCC[C@@H]1NC(=O)[C@H]2CCCCN2C(=O)[C@H]([C@@H](C)CC)NC(=O)[C@H](Cc2cn(OC)c3ccccc23)NC1=O [Apicidin] | C (C 50-75%) | – | – | – |
| CN[C@@H](C)C(=O)N[C@@H]1C(=O)N2C(C(=O)NC(c3ccccc3)c3ccccc3)CC[C@@H]2O[C@@H]1C (some centres unmarked) [Compound 15] | – | > 50 | 25 to 50 | – |
| CN[C@@H](C)C(=O)N[C@@H]1C(=O)N2C(C(=O)NC3CCCc4ccccc43)CC[C@@H]2O[C@@H]1C (some centres unmarked) [Compound 10] | – | > 50 | ≤ 25 | Ki ([4]; Table B-1): ≤ 25 µM |
| CN[C@@H](C)C(=O)N[C@H]1Cc2ccc(O)cc2[C@H]2CC(C)(C)C(C(=O)N[C@@H]3CCCc4ccccc43)N2C1=O (some centres unmarked) [Compound 45] | – | ≤ 25 | ≤ 25 | – |
| CN[C@@H](C)C(=O)N[C@H]1CCO[C@H]2CC[C@@H](C(=O)N[C@@H]3CCOc4ccccc43)N2C1=O [Compound 32] | – | > 50 | ≤ 25 | Ki ([4]; Table B-1): ≤ 25 µM |
| O=C(CCCCCCSc1ccc2ccccc2c1)NO [HNHA, Heptanamide, N-hydroxy-7-(2-naphthalenylthio)-] | B (B 25-50%) | – | – | – |
| CN[C@@H](C)C(=O)N[C@@H]1C(=O)N2C(C(=O)Nc3cccc4ccccc34)CC[C@@H]2O[C@@H]1C (some centres unmarked) [Compound 11] | – | > 50 | 25 to 50 | – |
| CN[C@@H](C)C(=O)N[C@H]1CCS(=O)(=O)[C@H]2CC[C@@H](C(=O)N[C@@H]3CCCc4ccccc43)N2C1=O [Compound 37] | – | > 50 | ≤ 25 | – |
| CC(C)(C)OC(=O)Nc1ccc(-c2cc(C(=O)NCCCCCCC(=O)NO)no2)cc1 [BML-281, Carbamic acid, N-[4-[3-[[[7-(hydroxyamino)-7-oxoheptyl]amino]carbonyl]-5-isoxazolyl]phenyl]-, 1,1-dimethylethyl ester] | B (B 25-50%) | – | – | – |
| CC(CC1OCCN(Cc2nc(=O)[nH][nH]2)C1c1ccc(F)cc1)c1cc(C(F)(F)F)cc(C(F)(F)F)c1 (centres unmarked) [NKL 22, 3H-1,2,4-Triazol-3-one, 5-[[2-[2-[3,5-bis(trifluoromethyl)phenyl]propyl]-3-(4-fluorophenyl)-4-morpholinyl]methyl]-1,2-dihydro-] | A (A 0-25%) | – | – | – |
| CN[C@@H](C)C(=O)N[C@H]1CCO[C@H]2CC[C@@H](C(=O)N[C@@H]3CCCc4ccccc43)N2C1=O [Compound 33] | – | > 50 | ≤ 25 | Ki ([4]; Table B-1): ≤ 25 µM |
| CN[C@@H](C)C(=O)N[C@H]1CCS(=O)(=O)[C@H]2CC[C@H](C(=O)N[C@@H]3CCCc4ccccc43)N2C1=O [Compound 38] | – | > 50 | 25 to 50 | – |
| CN[C@@H](C)C(=O)N[C@H]1CCO[C@H]2CCC(C(=O)NC(c3ccccc3)c3ccccc3)N2C1=O (some centres unmarked) [Compound 14] | – | > 50 | ≤ 25 | Ki ([4]; Table B-1): ≤ 25 µM |
| CC(/C=C/C(=O)NO)=C\[C@@H](C)C(=O)c1ccc(N(C)C)cc1 [Trichostatin A] | C (C 50-75%) | – | – | – |
| CN[C@@H](C)C(=O)N[C@H]1CO[C@H]2CCC(C(=O)NC3CCCc4ccccc43)N2C1=O (some centres unmarked) [Compound 9] | – | > 50 | ≤ 25 | – |
| CN[C@@H](C)C(=O)N[C@H]1CCO[C@H]2CCC(C(=O)n3ccc4ccccc43)N2C1=O (some centres unmarked) [Compound 22] | – | > 50 | 25 to 50 | – |
| CN[C@@H](C)C(=O)N[C@H]1CO[C@H]2CCC(C(=O)Nc3ccc(OC)cc3)N2C1=O (some centres unmarked) [Compound 4] | – | > 50 | 25 to 50 | – |

| Molecule | Group: increase of GFP+ cells [1] | Ki [2] [µM] | Ki ([3]; Table B-1) [µM] | further results |
| --- | --- | --- | --- | --- |
| CN[C@@H](C)C(=O)N[C@H]1CCS[C@H]2CCCC(C(=O)N[C@@H]3CCCc4ccccc43)N2C1=O (some centres unmarked) [Compound 41] | – | ≤ 25 | ≤ 25 | – |
| CN[C@@H](C)C(=O)N[C@H]1CO[C@H]2CCC(C(=O)NCc3ccccc3)N2C1=O (some centres unmarked) [Compound 6] | – | – | 25 to 50 | – |
| CC(=O)N(C)[C@@H](C)C(=O)N[C@H]1CCCN(C(C)=O)[C@H]2CCC(C(=O)Nc3cccc4ccccc34)N2C1=O (some centres unmarked) [Compound 19] | – | – | 25 to 50 | – |
| CN[C@@H](C)C(=O)N[C@H]1CCCNC2CCC(C(=O)Nc3cccc4ccccc34)N2C1=O (some centres unmarked) [Compound 17] | – | ≤ 25 | ≤ 25 | – |
| CN(C)c1ccc(C(=O)NCCCCCCC(=O)NO)cc1 [Compound M344, Benzamide, 4-(dimethylamino)-N-[7-(hydroxyamino)-7-oxoheptyl]-] | C (C 50-75%) | – | – | – |
| CN[C@@H](C)C(=O)N[C@H]1CO[C@H]2CCC(C(=O)Nc3ccc(OC)cc3)N2C1=O (some centres unmarked) [Compound 7] | – | – | 25 to 50 | – |
| CCCC(=O)OCc1ccc(OC(=O)/C=C(C)/C=C/C=C(C)/C=C/C2=C(C)CCCC2(C)C)cc1 [ATRA-BA Hybrid, Retinoic acid, 4-[(1-oxobutoxy)methyl]phenyl ester] | A (A 0-25%) | – | – | – |
| Cc1cc(Cl)ccc1OCCCC(=O)NO [Droxinostat] | B (B 25-50%) | – | – | – |
| CCCC(CCC)C(=O)O [Valproic acid, valproic acid] | A (A 0-25%) | – | – | – |
| Nc1ccccc1NC(=O)CCCCCCC(=O)Nc1ccccc1 [BML-210, Octanediamide, N1-(2-aminophenyl)-N8-phenyl-] | A (A 0-25%) | – | – | – |
| CN[C@@H](C)C(=O)N[C@H]1CCCNC2CCC(C(=O)NC3CCCc4ccccc43)N2C1=O (some centres unmarked) [Compound 16] | – | 25 to 50 | ≤ 25 | – |
| CN[C@@H](C)C(=O)N[C@H]1CCO[C@H]2CC[C@H](C(=O)N[C@@H]3CCOc4ccccc43)N2C1=O [Compound 39] | – | > 50 | 25 to 50 | – |
| CN[C@@H](C)C(=O)N[C@H]1CCN[C@H]2CCC(C(=O)N[C@@H]3CCCc4ccccc43)N2C1=O (some centres unmarked) [Compound 29] | – | > 50 | > 50 | – |
| Cc1ccc(C(=O)c2cc(C=CC(=O)NO)n(C)c2)cc1 [MC-1293, 2-Propenamide, N-hydroxy-3-[1-methyl-4-(4-methylbenzoyl)-1H-pyrrol-2-yl]-] | B (B 25-50%) | – | – | – |
| O=C([O-])CCCc1ccccc1.[Na+] [Phenylbutyrate•Na, Phenylbutyrate⋅Na] | A (A 0-25%) | – | – | – |
| CN[C@@H](C)C(=O)N[C@H]1CO[C@H]2CCC(C(=O)Nc3ccc(OC)cc3)N2C1=O (some centres unmarked) [Compound 3] | – | – | 25 to 50 | – |
| CN[C@@H](C)C(=O)N[C@H]1CCCN(C(C)=O)C2CCC(C(=O)NC3CCCc4ccccc43)N2C1=O (some centres unmarked) [Compound 20] | – | > 50 | ≤ 25 | – |
| CN[C@@H](C)C(=O)N[C@H]1CCO[C@H]2CC(C)(C)C(C(=O)Nc3ccccc3SSc3ccccc3NC(=O)C3N4C(=O)[C@@H](NC(=O)[C@H](C)NC)CCO[C@H]4CC3(C)C)N2C1=O (some centres unmarked) [Compound 40] | – | ≤ 25 | ≤ 25 | – |
| CN[C@@H](C)C(=O)N[C@H]1CCN[C@H]2CCC(C(=O)N[C@@H]3CCCc4ccccc43)N2C1=O (some centres unmarked) [Compound 28] | – | > 50 | 25 to 50 | – |
| O=C(CCCCCCC(=O)NO)NO [Suberoyl bis-hydroxamic acid] | B (B 25-50%) | – | – | – |
| O=Nc1ccc(O)c2ncccc12 [NSC-3852, 8-Quinolinol, 5-nitroso-] | B (B 25-50%) | – | – | – |
| O=C(CCCCCCC(=O)Nc1ccc(F)cc1)NO [p-Fluoro-SAHA] | A (A 0-25%) | – | – | – |
| CC(=O)N(C)[C@@H](C)C(=O)N[C@H]1CCCN(C(C)=O)[C@H]2CCC(C(=O)Nc3cccc4ccccc34)N2C1=O (some centres unmarked) [Compound 18] | – | > 50 | 25 to 50 | – |
| Oxamflatin | C (C 50-75%) | – | – | – |
| CN[C@@H](C)C(=O)N[C@H]1CCO[C@H]2CC3(CCCC3)C(C(=O)N[C@@H]3CCCc4ccccc43)N2C1=O (some centres unmarked) [Compound 43] | – | ≤ 25 | ≤ 25 | – |
| CN[C@@H](C)C(=O)N[C@H]1CCO[C@H]2CCC(C(=O)n3ccc4ccccc43)N2C1=O (some centres unmarked) [Compound 23] | – | – | 25 to 50 | – |
| CC(=O)Nc1ccc(C(=O)Nc2ccccc2N)cc1 [CI-994, Benzamide, 4-(acetylamino)-N-(2-aminophenyl)-] | A (A 0-25%) | – | – | – |
